Values of other authors in patent US10398653B2, “Solid preparations containing tofogliflozin and process of producing the same” (CHUGAI SEIYAKU KABUSHIKI KAISHA, priority 2013, dated 2019).

Target: T1, SGLT2 (Homo sapiens, UniProt P31639)
T1 sequence (P31639 1-672): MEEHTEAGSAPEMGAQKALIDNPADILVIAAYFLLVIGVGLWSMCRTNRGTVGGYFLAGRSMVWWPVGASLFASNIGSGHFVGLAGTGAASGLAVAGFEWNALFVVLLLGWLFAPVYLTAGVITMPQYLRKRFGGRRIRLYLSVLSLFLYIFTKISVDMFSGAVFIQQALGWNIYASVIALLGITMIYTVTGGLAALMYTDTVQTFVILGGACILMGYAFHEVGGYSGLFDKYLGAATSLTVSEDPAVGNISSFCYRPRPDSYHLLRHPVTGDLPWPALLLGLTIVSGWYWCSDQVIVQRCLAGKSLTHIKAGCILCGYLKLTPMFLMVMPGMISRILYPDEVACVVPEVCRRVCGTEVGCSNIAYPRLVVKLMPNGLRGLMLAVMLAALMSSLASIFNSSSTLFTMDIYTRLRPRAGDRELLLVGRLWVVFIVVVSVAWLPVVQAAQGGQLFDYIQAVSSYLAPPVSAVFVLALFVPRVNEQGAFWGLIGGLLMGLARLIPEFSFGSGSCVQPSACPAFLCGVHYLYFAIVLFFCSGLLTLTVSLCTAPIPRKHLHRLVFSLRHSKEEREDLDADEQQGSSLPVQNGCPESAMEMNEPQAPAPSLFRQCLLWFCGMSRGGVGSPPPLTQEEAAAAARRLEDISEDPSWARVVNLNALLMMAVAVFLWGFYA
Settings: as stated in Patent Document 1

- Inhibitory activity against SGLT2: excellent inhibitory activity
SMILES: CCc1ccc(Cc2ccc3c(c2)[C@]2(OC3)O[C@H](CO)[C@@H](O)[C@H](O)[C@H]2O)cc1 [tofogliflozin, 1,1-Anhydro-1-C-[5-(4-ethylphenyl)methyl-2-(hydroxymethyl)phenyl]-β-D-glucopyranose]
